For series [1] the following is noted: cited from earlier work. From the text: All constructs contain both ShK-235 and EGFP.
Series [2] deals with T1, mKv1.3 channels (Mus musculus, UniProt P16390).
T1 construct: expressed in transfected cells
Briefly: whole-cell patch-clamp block of mKv1.3 by synthetic ShK-235. The settings on record: Port-a-Patch, L929 fibroblasts stably expressing mKv1.3, 200 ms pulses −80 to 40 mV, 20–25°C, pH 7.4, N = 3 cells per concentration, mean ± SEM, read-out: IC50 for Kv1.3 block. The class given is cell-based. As to the method: Mouse L929 fibroblasts stably expressing mKv1.3 channels were a kind gift from Dr. Chandy (Nanyang Technological University, Singapore). They were maintained in Dulbecco’s modified Eagle’s medium (DMEM) supplemented with 10% heat-inactivated fetal bovine serum (FBS), 4 mM L-glutamine, 1 mM sodium pyruvate, and 500 μg/mL G418 (Calbiochem/EMD Millipore, Billerica, MA) and cultured to 60~70% confluence.
Patch clamp assays were conducted at room temperature (20–25°C) in the whole-cell configuration using a Port-a-Patch system (Nanion Technologies, Livingston, NJ) connected to a HEKA EPC10-USB amplifier controlled with the PatchMaster software (HEKA, Germany). The external solution contained 1 mM MgCl2, 160 mM NaCl, 4.5 mM KCl, 2 mM CaCl2, and 10 mM Hepes; pH was adjusted to 7.4 with NaOH. […]
The stock of synthetic ShK-235, the supernatants of transfected HEK293T cells, and the rodent serum samples were diluted in the external solution immediately before use and tested in triplicates without any further processing. Peak Kv1.3 currents were recorded before addition of the samples and after reaching steady-state block and results were analyzed using IGOR Pro software (WaveMetrics, Portland, OR) and the IC50 of channel block was calculated by nonlinear regression using Prism software (GraphPad Software, San Diego, CA).
(Patch clamp records ionic current or voltage across a cell membrane.)

Series [3] has as its system Kv1.3. To be noted: cited from earlier work. From the text: (§1) The voltage-gated Kv1.3 potassium channel has gained interest as a therapeutic target for obesity, as mice lacking Kv1.3 or treated with a Kv1.3 blocker are protected from high-fat diet (HFD)-induced obesity. Kv1.3 is also a target for autoimmune diseases, as […] (CCR7)^- effector memory T (TEM) lymphocytes express high levels of Kv1.3 upon activation and blocking of Kv1.3 inhibits their function. […] However, S ...

The test system of series [4] is other Kv1.x channels and the KCa3.1 channel. To be noted: cited from earlier work.
Source text: as §1

T1 sequence (P16390 whole entry): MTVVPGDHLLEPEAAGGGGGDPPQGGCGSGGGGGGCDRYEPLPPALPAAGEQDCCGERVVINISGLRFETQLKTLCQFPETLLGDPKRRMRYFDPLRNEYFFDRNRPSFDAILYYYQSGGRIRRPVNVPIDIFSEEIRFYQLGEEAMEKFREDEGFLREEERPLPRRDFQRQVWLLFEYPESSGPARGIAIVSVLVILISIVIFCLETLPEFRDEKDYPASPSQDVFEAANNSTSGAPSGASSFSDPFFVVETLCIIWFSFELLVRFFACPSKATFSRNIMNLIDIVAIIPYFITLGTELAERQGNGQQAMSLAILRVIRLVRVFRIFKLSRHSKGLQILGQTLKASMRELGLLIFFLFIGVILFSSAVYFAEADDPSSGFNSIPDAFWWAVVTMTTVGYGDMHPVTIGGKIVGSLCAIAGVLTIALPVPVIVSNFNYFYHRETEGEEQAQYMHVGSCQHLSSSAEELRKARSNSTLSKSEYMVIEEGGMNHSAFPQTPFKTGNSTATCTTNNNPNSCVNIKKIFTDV

By IC50 is commonly meant the point on the concentration scale where inhibition reaches its midpoint. As to `CC[C@H](C)[C@@H]1NC(=O)[C@H](CO)NC(=O)[C@H](Cc2c[nH]cn2)NC(=O)[C@H](CCCCN)NC(=O)[C@@H]2CSSC[C@@H]3NC(=O)[C@H]([C@@H](C)O)NC(=O)[C@H](CCCCN)NC(=O)[C@H](CCCNC(=N)N)NC(=O)[C@H](CSSC[C@H](NC(=O)[C@H](CCCNC(=N)N)NC(=O)[C@H](CO)NC(=O)[C@H](CCCCN)NC(=O)[C@@H]4CCCN4C(=O)[C@H]([C@@H](C)CC)NC(=O)[C@H]([C@@H](C)O)NC(=O)[C@H](CC(=O)O)NC(=O)[C@H]([C@@H](C)CC)NC(=O)[C@@H](NC(=O)[C@H](CO)NC(=O)[C@@H](N)CCCNC(=N)N)CSSC[C@@H](C(=O)N[C@@H](C)C(=O)O)NC(=O)[C@H]([C@@H](C)O)NC(=O)CNC3=O)C(=O)N[C@@H]([C@@H](C)O)C(=O)N[C@@H](C)C(=O)N[C@@H](Cc3ccccc3)C(=O)N[C@@H](CCCCN)C(=O)N2)NC(=O)[C@H](Cc2ccccc2)NC(=O)[C@H](CO)NC(=O)[C@H](CC(C)C)NC(=O)[C@H](CCCNC(=N)N)NC(=O)[C@H](Cc2ccc(O)cc2)NC(=O)[C@H](CCCCN)NC1=O` [ShK-235], the immunogenicity entry in series [1] is listed as “not immunogenic”. Also, in series [2], the IC50 came to 0.0709 ± 0.0219 nM.
As for “ShK: small peptide produced by the sea anemone Stichodactyla helianthus, one of the most potent blockers of Kv1.3 (RSCIDTIPKSRCTAFKCKHSIKYRLSFCRKTCGTCA)”, in series [3], the IC50 is 0.01 nM. The “block of other Kv1.x channels and KCa3.1” value in series [4] is “in the pM to low nM range”.

Values taken from paper PMC10089316, “Adeno-Associated virus 8 delivers an immunomodulatory peptide to mouse liver more efficiently than to rat liver” (PLOS ONE, 2023).
